The text below walks through data of PMC2710984 (International Journal of Peptide Research and Therapeutics, 2006).

As a reminder, the IC50 is the concentration needed to halve the response being measured.

Several values for one entry are separate records, joined by “and”; a condition that tells them apart may be missing. Equal values may be shown once. Square brackets hold non-standard residues; d marks the D form. Ends that are not written are not given here. Peptide text beside a SMILES is read from it. Abu = CC[C@H](N)C(=O)O; Lac = C[C@H](O)C(=O)O

Chain of XIAP BIR3 (P98170 241-356 limits assumed): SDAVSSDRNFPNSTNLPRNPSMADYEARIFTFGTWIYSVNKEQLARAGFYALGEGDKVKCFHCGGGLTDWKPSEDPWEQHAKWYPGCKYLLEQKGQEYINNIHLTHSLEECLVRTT

The test system of the first experiment is XIAP BIR3 domain.
Experiment: not given
Conditions: ref Nikolovska-Coleska et al., 2004; cited from earlier work.
On to `CCCCCCCCCCCC1=C(O)C(=O)C=C(O)C1=O` [Embelin], for which the half-maximal inhibitory concentration (IC50) was 4100 nM.

Another experiment addresses XIAP BIR3 (Homo sapiens, UniProt P98170). As to the kind of experiment: Peptide–BIR3 binding assay.
Conditions: not given
In the case of `CC(C)[C@H](NC(=O)[C@H](C)N)C(=O)N1CCC[C@H]1C(N)=O` [Compound 5, AVP] (H-Ala-Val-Pro-NH2), the IC50 was above 10000 nM. For the compound `CC(C)[C@H](NC(=O)[C@H](C)N)C(=O)N[C@@H](C)C(=O)N[C@@H](Cc1ccccc1)C(N)=O` [Compound 6, AVAF], the IC50 was found to be 750 nM. Same read-out and setting: the value for `CC[C@H](C)[C@H](NC(=O)[C@H](C)N)C(=O)N[C@@H](C)C(=O)N[C@@H](Cc1ccc(O)cc1)C(N)=O` [Compound 8, AIAY] (H-AIAY-NH2) was 340 nM; that for `CC[C@H](N)C(=O)N[C@H](C(=O)N1CCC[C@H]1C(=O)N[C@@H](Cc1ccccc1)C(N)=O)C(C)C` [Compound 9, Abu–VPF] (H-[Abu]VPF-NH2) was 120 nM; that for `CC(C)[C@H](NC(=O)[C@@H](N)CO)C(=O)N1CCC[C@H]1C(=O)N[C@@H](Cc1ccccc1)C(N)=O` [Compound 10, SVPF] (H-SVPF-NH2) was 1000 nM. For `CC(C)[C@H](NC(=O)[C@H](C)O)C(=O)N1CCC[C@H]1C(=O)N[C@@H](Cc1ccccc1)C(N)=O` [Compound 14, Lac–VPF] (H-[Lac]VPF-NH2), the IC50 is above 1600 nM. `CC(C)C[C@H](NC(=O)[C@H](C)N)C(=O)N1CCC[C@H]1C(=O)N[C@@H](Cc1ccccc1)C(N)=O` [Compound 15, ALPF] (H-ALPF-NH2) registered an IC50 of 180 nM. The same measure, in the same setting: the value for `CC[C@H](C)[C@H](NC(=O)[C@H](C)N)C(=O)N1CCC[C@H]1C(=O)N[C@@H](Cc1ccccc1)C(N)=O` [Compound 16, AIPF] (H-AIPF-NH2) was 80 nM; that for `C[C@H](N)C(=O)N[C@H](C(=O)N1CCC[C@H]1C(=O)N[C@@H](Cc1ccccc1)C(N)=O)[C@@H](C)O` [Compound 17, ATPF] (H-ATPF-NH2) was 200 nM; that for `CC(C)[C@H](NC(=O)[C@H](C)N)C(=O)N1C[C@H](O)C[C@H]1C(=O)N[C@@H](Cc1ccccc1)C(N)=O` [Compound 20, AV–Hyp–F] was 1000 nM. The compound AVPIA-NH2 [Compound 3, AVPIA] gave a concentration for half-maximal inhibition (IC50) of 300 nM.

The same experiment, now with this note: IC50, inhibition of Smac–BIR3 interaction, FMAT.
For the compound AVPIAQ-NH2 [Compound 2, AVPIAQ], the IC50 worked out at 270 nM.

Consider AVPIAQK-NH2 [Compound 1, AVPIAQK], for which the IC50 is 400 nM and 390 nM.

The target in a further experiment is GST–BIR3 (Homo sapiens, UniProt P98170).
Chain of GST–BIR3 (P98170 241-356 limits assumed): as above
Experiment: not given
The experiment is classed as biochemical.
Conditions: not given
The compound AVPFAQK-NH2 [AVPFAQK] returned an IC50 of 2000 nM. For the compound AVPIAQK-NH2 [Compound 1, AVPIAQK], the IC50 worked out at 3000 nM.
